Laboratory results from patent publication US9969715B2, “Compounds useful for treating cancer” (ABIVAX, priority 2012, dated 2018).

Key:
human PBMC = test: Toxicity assay under normal cell culture conditions (MTS), PBMC; format: cell-based; settings: human PBMC, RPMI+10% FBS+IL-2, 72 h incubation, MTS
Experimental: (§1) Toxicity Assays (Under Normal Cell Culture Conditions):
(§2) Compounds were prepared as for the invasion assay, and then added to either MDA-MB231-luc-D3H2LN cells (2000/well) under normal culture conditions (MEM+10% FBS), or human PBMC (75000/well, in RPMI+10% FBS+IL-2) in standard 96-well tissue culture plates. After 72 h incubation, a standard MTS assay was performed according to the manufacturer's instructions (Promega Ref. G3581). Compounds were tested at various concentrations (concentration-response curves) in order to determine the concentrations at which 50% toxicity is obtained.

[1] = system: MDA-MB231-luc-D3H2LN cells; test: Toxicity assay under normal cell culture conditions (MTS), MDA cells; format: cell-based, human; settings: MDA-MB231-luc-D3H2LN cells, MEM+10% FBS, 72 h incubation, MTS
Experimental: (§3) In order to detect possible toxic effects, all compounds are tested in parallel in a viability assay. The viability assay is performed in parallel on serum-starved cells (as in the invasion assay) vs. cells under normal culture conditions (10% FBS).
as §1, §2

[2] = system: MDA-MB231-luc-D3H2LN cells; test: Invasion of MDA-MB231-D3H2LN cells into collagen (example 15 = procedure 2, 48 h drug pre-incubation); format: cell-based; settings: concentration giving 50% of the anti-invasive effect of 10 μM Y-27632; 48 h pre-incubation, 24 h with 5% FBS; read-out: MDA: Inhib. of invasion: 0.5 × eff. of 10 μM Y-27632 at (μM) av
Experimental: Effect of Drug Compounds on Invasion of MDA-MB231-D3H2LN Cells into Collagen
Preparation of cells at the bottom of a collagen gel: Cells are suspended in a liquid collagen solution (4° C.), distributed into BSA-coated wells, and then collected at the bottom of the wells by centrifugation. The collagen is then solidified by incubation at 37° C. The BSA coating improves the adhesion of the collagen gel.
Pre-treatment with the compounds to be tested: Concentrated drug solutions are then added on top of the collagen, and cells are pre-incubated for 48 h with the drugs at low serum conditions (0.025% FBS).
Stimulation of invasion: Medium with 5% FBS is then added in order to stimulate invasion of the cells into the collagen gel.
(§4) Viability assay, fixation and staining: Following another 24 h incubation, an MTS assay is performed directly on the cells in the collagen. Then, cells are fixed and nuclei are stained.
Analysis: Finally, plates are analyzed using an automated microscope. Fluorescent beads that have been included into the BSA coating serve to detect the bottom of the wells. Pictures of the stained nuclei are taken at the same level (0 μm) as well as 25 μm and 50 μm above.
Negative control: No drug (just DMSO at equivalent concentration). Positive control: 10 μM Y-27632. To avoid edge effects, cells are added only to the 60 central wells B2-G11; lines A and H receive only collagen without cells (blank for the MTS assay) columns 1 and 12 remain free. Each drug is tested at least in triplicate. The positive and negative controls should be tested in several triplicates at different positions on each plate. Typical plate map (−=negative control, +=positive control, 1-12=12 different test conditions, i. e. different drug compounds or concentrations):
Preparation of 4× concentrated drug solutions in MEM+0.1% FBS+2% Lutrol E-400+0.8% DMSO: Mix each 620 μl MEM+0.1% FBS+2% Lutrol E-400 with each 4 μl DMSO+each 1 μl of the 50 mM compound stock solutions (yielding […] and 0.8% DMSO). If the desired final compound concentration is <5 μM, then further dilute in MEM+0.1% FBS+0.8% DMSO. Negative control: MEM+0.1% FBS+2% Lutrol E-400+0.8% DMSO without any drug. Preparation of the positive control: Mix 4.5 ml MEM+0.1% FBS+2% Lutrol E-400+[…] with 36 μl 5 mM Y-27632 (freshly thawed aliquot) (yielding 40 μM).
add each 33 μl/well of the 4× concentrated drug solutions in MEM+0.1% FBS+2% Lutrol E-400+0.8% DMSO to the corresponding wells (yields 1× concentrated drugs in MEM+0.025% FBS+0.5% Lutrol E-400+0.2% DMSO final)
incubate 48 h at 37° C./5% CO2
incubate 24 h at 37° C./5% CO2
for each well, calculate the mean invasion distance of the counted cells: (25 μm×number of cells at 25 μm+50 μm×number cells at 50 μm)/sum of cells at 0, 25 and 50 μm
invalidate any replicate with a CV≥50% (compound to be re-tested, or assay to be repeated if CV≥50% for the untreated negative control or the compound Y-27632-treated positive control). Y27632 is a selective inhibitor of the Rho-associated protein kinase p160ROCK of the following formula
validate the assay only if the mean invasion distance of the cells treated with 10 μM Y-27632 (positive control) is decreased by ≥40% as compared to the untreated negative control
(§5) Final analysis: Determine the concentration at which a given compound has 50% of the anti-invasive effect of the positive control (10 μM Y-27632). Determine the toxicity (=loss of viability) of the compound under these conditions.
Here, invasion (into collagen) is the concentration of the compound necessary to reach 50% of the inhibition effect compared to 10 μM Y-27632.
Standard operating procedure 2 is exactly the same as the procedure as described in example 15.

[3] = system: MDA-MB231-luc-D3H2LN cells; test: Viability (MTS) assay on the cells in collagen under invasion assay conditions; format: cell-based, human; settings: loss of viability at the concentration giving 0.5 × effect of 10 μM Y-27632, invasion assay conditions
Experimental: as §4, §3
Viability Assay: MTS Assay:
add each 33 μl/well of the MTS reagent, incubate 3-4 h at 37° C./5% CO2
read absorbance at 490 nm (proportional to the viability)
calculate the background-corrected signals by subtracting the means of the background signals in absence of cells from the corresponding signals in presence of cells
normalize the background-corrected signals with respect to the mean signal of the negative controls (no drug) (viabilities are thus expressed in “% of control”)
as §5

Row | SMILES | PBMC tox.: 50% tox. at (μM) av (human PBMC) [µM] | MDA tox: 50% tox. at (μM) av [1] | IC50 [2] [µM] | (+ MDA tox. under these cond.) % tox [3] [%]
1 | CCN(CC)CCCNC(=O)c1ccc(Nc2cccc(C(=O)Nc3ccncc3)c2)cc1 [Compound 2, 3-((4-((3-(diethylamino)propyl)carbamoyl)phenyl)amino)-N-(pyridin-4-yl)benzamide] | 156 | 103 µM | > 5 | 
2 | CN1CCN(CCCNC(=O)c2cccc(Nc3cccc(C(=O)Nc4ccncc4)c3)c2)CC1 [Compound 6, N-(3-(4-methylpiperazin-1-yl)propyl)-3-((3-(pyridin-4-ylcarbamoyl)phenyl)amino)benzamide] | 100 | 58 µM | 0.16 | <10
3 | O=C(NCCCN1CCCCC1)c1cccc(Nc2cccc(C(=O)Nc3ccncc3)c2)c1 [Compound 7, N-(3-(piperidin-1-yl)propyl)-3-((3-(pyridin-4-ylcarbamoyl)phenyl)amino)benzamide] | 38 | 25 µM | 0.11 | <10
4 | CN1CCN(C(=O)c2cccc(Nc3cccc(C(=O)Nc4ccncc4)c3)c2)CC1 [Compound 8, 3-((3-(4-methylpiperazine-1-carbonyl)phenyl)amino)-N-(pyridin-4-yl)benzamide] |  | >>100 μM | 7.5 | 
5 | O=C(Nc1ccncc1)c1cccc(Nc2cccc(S(=O)(=O)NCCN3CCCCC3)c2)c1 [Compound 10, 3-((3-(N-(2-(piperidin-1-yl)ethyl)sulfamoyl)phenyl)amino)-N-(pyridin-4-yl)benzamide] | 29 | 45 µM | 0.53 | <10
6 | CCN(CC)CCCNC(=O)c1cccc(Nc2ccc(C(=O)Nc3ccncc3)cc2)c1 [Compound 13, N-(3-(diethylamino)propyl)-3-((4-(pyridin-4-ylcarbamoyl)phenyl)amino)benzamide] | 34 | 93 µM | > 5 | 
7 | O=C(NCCCN1CCOCC1)c1cccc(Nc2ccc(C(=O)Nc3ccncc3)cc2)c1 [Compound 14, N-(3-morpholinopropyl)-3-((4-(pyridin-4-ylcarbamoyl)phenyl)amino)benzamide] | 20 | 70 µM | > 2.5 | 
8 | O=C(Nc1ccncc1)c1ccc(Nc2cccc(S(=O)(=O)NCCCN3CCOCC3)c2)cc1 [Compound 15, 4-((3-(N-(3-morpholinopropyl)sulfamoyl)phenyl)amino)-N-(pyridin-4-yl)benzamide] | 36 | >>44 μM | 5 | <10
9 | O=C(Nc1ccncc1)c1ccc(Nc2cccc(S(=O)(=O)NCCN3CCCC3)c2)cc1 [Compound 16, N-(pyridin-4-yl)-4-((3-(N-(2-(pyrrolidin-1-yl)ethyl)sulfamoyl)phenyl)amino)benzamide] | 10 | 78 µM | ≥ 4.6 | 
10 | CCN(CC)CCCNC(=O)c1cccc(Nc2cccc(C(=O)N(C)c3ccncc3)c2)c1 [Compound 17, 3-((3-((3-(diethylamino)propyl)carbamoyl)phenyl)amino)-N-methyl-N-(pyridin-4-yl)benzamide] | >100 | >100 µM | 3 | <10
11 | CN(C(=O)c1cccc(Nc2cccc(C(=O)NCCCN3CCCC3)c2)c1)c1ccncc1 [Compound 18, N-methyl-N-(pyridin-4-yl)-3-((3-((3-(pyrrolidin-1-yl)propyl)carbamoyl)phenyl)amino)benzamide] | >100 | >100 µM | 3.45 | <10
12 | CCN(CC)CCCNS(=O)(=O)c1cccc(Nc2cccc(C(=O)N(C)c3ccncc3)c2)c1 [Compound 19, 3-((3-(N-(3-(diethylamino)propyl)sulfamoyl)phenyl)amino)-N-methyl-N-(pyridin-4-yl)benzamide] | >100 | >100 µM | > 5 | 
13 | CN1CCN(CCCNC(=O)c2cccc(Nc3cccc(C(=O)N(C)c4ccncc4)c3)c2)CC1 [Compound 20, N-methyl-3-((3-((3-(4-methylpiperazin-1-yl)propyl)carbamoyl)phenyl)amino)-N-(pyridin-4-yl)benzamide] | >100 | >100 µM | 0.85 | <10
14 | CN(C(=O)c1cccc(Nc2cccc(C(=O)NCCCN3CCCCC3)c2)c1)c1ccncc1 [Compound 21, N-methyl-3-((3-((3-(piperidin-1-yl)propyl)carbamoyl)phenyl)amino)-N-(pyridin-4-yl)benzamide] | >100 | >100 µM | 2.05 | <10
15 | CN(C(=O)c1cccc(Nc2cccc(S(=O)(=O)NCCCN3CCOCC3)c2)c1)c1ccncc1 [Compound 23, N-methyl-3-((3-(N-(3-morpholinopropyl)sulfamoyl)phenyl)amino)-N-(pyridin-4-yl)benzamide] | >70 | >100 µM | > 5 | 
16 | CCN(CC)CCCNC(=O)c1cccc(Nc2ccc(C(=O)Nc3ccncc3)cc2)n1 [Compound 36, N-(3-(diethylamino)propyl)-6-((4-(pyridin-4-ylcarbamoyl)phenyl)amino)picolinamide] | 58 | >>100 μM | > 5 | 
17 | CCN(CC)CCCNS(=O)(=O)c1cccc(Nc2cc(C(=O)Nc3ccncc3)ccn2)c1 [Compound 46, 2-((3-(N-(3-(diethylamino)propyl)sulfamoyl)phenyl)amino)-N-(pyridin-4-yl)isonicotinamide] | >100 | >100 µM | 7.5 | 
